Entries after “also recorded” stand apart in the source; their conditions may differ.
How the values were obtained:
[1] = target: PDE5 (Homo sapiens, UniProt O76074); conditions: cited from earlier work
[2] = tested on: PDE5/CyaB1-chimera; test: adenylate cyclase activity of PDE5/CyaB1-chimera (conversion of [α-32P]-ATP to cAMP); type: biochemical, human; conditions: in the presence of cGMP; FIG. 6
Description: The adenylate cyclase activity of the PDE5/CyaB1-chimera is measured with and without the test substance. […] The incubation time should be between 1 and 120 min, the incubation temperature between 20 and 45° C., the Mg^2+-cofactor concentration between 1 and 20 mM (corresponding amounts of Mn^2+ may also be used as a cofactor) and the ATP concentration between 0.5 μM and 5 mM. An increase in the conversion with the substance compared to without the substance indicates a GAF-agonistic effect. If conversion is inhibited by adding the substance, this indicates a GAF-antagonistic effect of the substance. A GAF antagonism can also be measured via blockage of activation of PDE5/CyaB1-chimera by the native GAF ligand cGMP. In addition, the conversion at rising or fixed cGMP concentration is measured with and without the substance. If the conversion rates with the substance are below those without the substance, this indicates GAF antagonism of the substance. […]
The protein samples and the cocktail are measured in 1.5 mL reaction containers on ice, the reaction with ATP is started, and incubation is carried for 10 minutes at 37° C.
Each test mixture is carried in duplicate. […] With a test mixture without substance and cGMP, the basal enzyme activity is determined. […]
The inhibition or activation of the enzyme by the substance is calculated as % basal value according to the following formula: […]

Row | SMILES | increase of the activity of PDE5 via cGMP binding to the GAF tandem [1] | PDE5-antagonistic effect via binding to the GAF domain of PDE5 [2]
1 | Nc1nc2c(ncn2[C@@H]2O[C@@H]3COP(=O)(O)O[C@H]3[C@H]2O)c(=O)[nH]1 [cGMP] | tenfold | –
2 | CCCc1nn(C)c2c(=O)[nH]c(-c3cc(S(=O)(=O)N4CCN(C)CC4)ccc3OCC)nc12 [Sildenafil] | – | None of the measured PDE5 inhibitors shows a PDE5-antagonistic effect; also recorded: None of the measured PDE5 inhibitors showed a PDE5-antagonistic action
